US20250137059A1, “ACTIVATED RAS AS THERAPEUTIC AND DIAGNOSTIC TARGET FOR NEUROFIBROMATOSIS AND USE THEREOF” (THE ASAN FOUNDATION, priority 2021, published 2025)

Legend:
Type in all cases: cell-based, human
p-ERK protein = experiment: Expression ratios of ERK and p-ERK on membrane with ERK and p-ERK antibodies (FIG. 5); settings: Ataluren 20 μg/ml or 30 μg/ml (FIG. 5)
Method: (§1) The skin fibroblasts from donated normal individuals and neurofibromatosis patients were treated with Ataluren at concentrations of 20 μg/ml and 30 μg/ml and cultured, in a DMEM supplemented with 10% FBS and 1% penicillin-streptomycin. When the cells were cultured until the density reached 70% to 80% of a container, the medium was replaced with an FBS-free medium, and the cells were cultured and underwent a starvation process for 24 hours. Next, the cells were transferred to an FBS-containing medium, treated with EGF, which is a Ras activator, by dilution to a concentration of 100 ng/ml, and then allowed for a reaction at 37° C. for 5 minutes to prepare each sample. Measurement of the activity of Ras proteins in each sample was performed in the same manner as described in Example 2.
(§2) The same protein of which the Ras activity was measured in Example 3 was subjected to electrophoresis by using NuPAGETM 4-12% Bris-Tris Gel (Invitrogen).
To more accurately compare the ERK activity, the electrophoresed proteins were transferred to a hybond-ECL membrane, and the membrane was blocked with 3% skim milk. Next, ERK and p-ERK antibodies were reacted on the membrane at 4° C. for 24 hours, and then washed by using TBST three times. […] The expression ratios of ERK and p-ERK in the washed membrane were measured.

[1] = system: phosphorylated ERK (p-ERK); experiment: Electrophoresis comparison of p-ERK expression in fibroblasts upon Ataluren treatment (FIG. 4); settings: Ataluren 20 μg/ml or 30 μg/ml, electrophoresis (FIG. 4); for expression of p-ERK: fibroblasts of neurofibromatosis patients in which the activity of Ras proteins has been decreased
Method: as §1, §2

[2] = system: GTP-bound and activated RAS (Ras-GTP) protein; experiment: G-LISA Ras activation assay in skin fibroblasts after EGF stimulation upon Ataluren treatment; settings: skin fibroblasts of neurofibromatosis patients (NF1 stop codon mutation) with increased Ras activity compared to normal individuals; Ataluren 20 μg/ml and 30 μg/ml (FIG. 3: 30 μg/ml); EGF 100 ng/ml
Method: The skin fibroblasts from donated normal individuals and neurofibromatosis patients were cultured in a DMEM supplemented with 10% FBS and 1% penicillin-streptomycin. When the cells were cultured until the density reached 70% to 80% of a container, the medium was replaced with an FBS-free medium, and the cells were cultured and subjected to a starvation process for 24 hours. Next, the cells were transferred to an FBS-containing medium, treated with epidermal growth factor (EGF), which is a Ras activator, by dilution to a concentration of 100 ng/ml, and then allowed for a reaction at 37° C. for 5 minutes to prepare each sample. To analyze the activity of the RAS proteins, a G-LISA Ras activation assay biochem Kit of Cytoskeleton Company (Absorbance Based) (Cytoskeleton, Cat No. BK131), which enables the measurement of a small number of cells and a large number of cells at the same time by compensating for the disadvantages of the pull-down assay, was used.
Briefly, in a method of analyzing the activity of the RAS proteins, cells were lysed by using a cell lysis solution included in the kit after treatment with EGF, only the supernatant was obtained, and the proteins contained in the supernatant were quantified. […] Next, an HRP detection reagent was added and a reaction was allowed for 15 minutes at room temperature to measure the absorbance at 490 nm. […]

[3] = fibroblasts of normal individuals

O=C(O)c1cccc(-c2noc(-c3ccccc3F)n2)c1 [Ataluren, 3-[5-(2-fluoro-phenyl)-[1,2,4]oxadiazol-3-yl]-benzoic acid]
expression of p-ERK (expression ratios of ERK and p-ERK) (p-ERK protein; fibroblasts of neurofibromatosis patients in which the activity of Ras proteins has been decreased): decreased
expression level of p-ERK protein (expression ratios of ERK and p-ERK) (p-ERK protein; [3]): slightly increased
expression of p-ERK [1]: decreased
expression of p-ERK ([1]; listed as ataluren): significantly decreased
expression of phosphorylated ERK (p-ERK) [1, 3]: no change
signal of Ras-GTP (activity of Ras proteins) [2]: significantly decreased
